Here are results for 28 molecules from US8916555B2, “3,5-diaminopyrazole kinase inhibitors” (Axikin Pharmaceuticals, Inc., priority 2012, dated 2014).

For data set [1], the target named is T1, kinase domain protein of RC kinase (Homo sapiens, UniProt Q56UN5).
T1 sequence (Q56UN5 1061-1324 limits assumed): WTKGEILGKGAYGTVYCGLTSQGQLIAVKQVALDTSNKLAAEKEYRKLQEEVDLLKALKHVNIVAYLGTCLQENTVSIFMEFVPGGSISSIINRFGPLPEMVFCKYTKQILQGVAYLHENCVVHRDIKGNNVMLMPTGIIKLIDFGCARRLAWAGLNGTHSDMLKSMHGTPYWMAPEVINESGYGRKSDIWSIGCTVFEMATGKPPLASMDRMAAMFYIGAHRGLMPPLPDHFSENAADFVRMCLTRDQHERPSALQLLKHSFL
As to the kind of experiment: Enzymatic assay for kinase inhibitory activity (Crebtide substrate, LANCE readout), kinase domain protein. The class given is biochemical. To be noted: test compound 1 μM, ATP 1 μM, Crebtide 50 nM. In short, it runs like this:
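Kinase domain (1 mg/mL final) with 50 nM Crebtide and 1 μM ATP in MAPK buffer (50 mM HEPES, 10 mM MgCl2, 2 mM DTT, 0.01% Tween 20), 45 min RT. Compound at 1 μM or 1×IC50, duplicate. EDTA/anti-Crebtide stop, 45 min development, LANCE 665/615 nm; % inhibition at 1 μM binned A–D.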

In general, inhibition refers to how much of the control response was suppressed. Higher therefore signals a strong effect. By melting point is commonly meant the temperature of the solid-liquid transition.

Regarding `CC1CCN(C2CCN(c3ccc(Nc4n[nH]c(NCc5ccc(O)cc5)c4C(N)=O)cc3)CC2)CC1` [Compound D102, 5-((4-hydroxybenzyl)amino)-3-((4-(4-methyl-[1,4′-bipiperidin]-1′-yl)phenyl)amino)-1H-pyrazole-4-carboxamide], the melting point lay in the range of 220 to 224 °C. This molecule also showed an inhibition at 1 µM in data set [1] not below 50%.
As to `COc1cc(CNc2[nH]nc(NCc3ccc(O)cc3)c2C(N)=O)ccc1F` [Compound D105], the melting point lay within 180 to 184 °C. Besides, the inhibition at 1 µM in data set [1] was in the range of 20 to 50%.
As for `NC(=O)c1c(Nc2ccc(S(N)(=O)=O)cc2)n[nH]c1NCc1ccc(O)cc1` [Compound D107, 5-((4-hydroxybenzyl)amino)-3-((4-sulfamoylphenyl)amino)-1H-pyrazole-4-carboxamide], the melting point lay in the range of 270 to 275 °C. The inhibition at 1 µM in data set [1] is not below 50%.
Consider `NC(=O)c1c(Nc2ccc(-c3ccccn3)cc2)n[nH]c1NCc1ccc(O)cc1` [Compound D109], for which the melting point was 217 to 221 °C. In addition, in data set [1], the inhibition at 1 µM is not below 50%.
`NC(=O)c1c(Nc2ccc(N3CCN(C(=O)N4CCCCC4)CC3)cc2)n[nH]c1NCc1ccc(O)cc1` [Compound D110, 5-((4-hydroxybenzyl)amino)-3-((4-(4-(piperidine-1-carbonyl)piperazin-1-yl)phenyl)amino)-1H-pyrazole-4-carboxamide] registered a melting point of 236 to 240 °C. Besides, in data set [1], the inhibition at 1 µM was not below 50%.
Turning to `NC(=O)c1c(Nc2ccc(-c3cnco3)cc2)n[nH]c1NCc1ccc(O)cc1` [Compound D111], the melting point lay within 258 to 266 °C. For the same molecule, the inhibition at 1 µM in data set [1] is not below 50%.
In turn, `COc1ccc(CNc2n[nH]c(NCc3ccc(O)cc3)c2C(N)=O)cn1` [Compound D112] registered a melting point of 178 to 180 °C. This molecule also had an inhibition at 1 µM in data set [1] of 20 to 50%.
Taken in the same sequence, the figures for `CS(=O)(=O)c1ccc(CNc2n[nH]c(NCc3ccc(O)cc3)c2C(N)=O)cc1` [Compound D113, 5-((4-hydroxybenzyl)amino)-3-((4-(methylsulfonyl)benzyl)amino)-1H-pyrazole-4-carboxamide] were 263 to 267 °C and 5 to 20%.
For the molecule `NC(=O)c1c(NCc2c(F)cccc2F)n[nH]c1NCc1ccc(O)cc1` [Compound D114], the melting point lay within 189 to 191 °C. This molecule also came in with an inhibition at 1 µM in data set [1] not above 5%.
Regarding `NC(=O)c1c(NCc2c(F)cccc2Cl)n[nH]c1NCc1ccc(O)cc1` [Compound D115], the melting point was 215 to 218 °C. In data set [1], this molecule had an inhibition at 1 µM of 5 to 20%.
Take `CN1CCN(c2ccc(Nc3n[nH]c(NCc4ccc(O)cc4)c3C(N)=O)cc2Cl)CC1` [Compound D116]: the melting point lay within 230 to 236 °C. Moreover, the inhibition at 1 µM in data set [1] is not below 50%.
As to `NC(=O)c1c(Nc2ccc(N3CCOCC3)nc2)n[nH]c1NCc1ccc(O)cc1` [Compound D118], the melting point was 199 to 203 °C. For the same molecule, the inhibition at 1 µM in data set [1] is not below 50%.
`CC1CCN(C2CCN(c3ccc(Nc4n[nH]c(NCc5ccc(O)cc5)c4C(N)=O)cn3)CC2)CC1` [Compound D119]: the melting point lay within 203 to 206 °C. Further, the inhibition at 1 µM in data set [1] was not below 50%.
For `NC(=O)c1c(Nc2ccc(N3CCC(N4CCCC4)CC3)cc2)n[nH]c1NCc1ccc(O)cc1` [Compound D121], in that order: 241 to 244 °C and not below 50%.
In the case of `NC(=O)c1c(NCc2ccc(Cl)c(F)c2)n[nH]c1NCc1ccc(O)cc1` [Compound D122], the melting point fell in the range of 204 to 207 °C. This molecule registered an inhibition at 1 µM in data set [1] of 5 to 20%.
For `NC(=O)c1c(Nc2ccc(N3CCN(c4ncccn4)CC3)cc2)n[nH]c1NCc1ccc(O)cc1` [Compound D124], in that order: 219 to 227 °C and not below 50%.
Take `NC(=O)c1c(Nc2ccc(-c3cc(CO)c4ccccc4n3)cc2)n[nH]c1NCc1ccc(O)cc1` [Compound D125]: the melting point was 216 to 220 °C. The inhibition at 1 µM in data set [1] is not below 50%.
In turn, `CN(C)c1ccc(Nc2n[nH]c(NCc3ccc(O)cc3)c2C(N)=O)cc1` [Compound D126, 3-((4-(dimethylamino)phenyl)amino)-5-((4-hydroxybenzyl)amino)-1H-pyrazole-4-carboxamide] had a melting point of 184 to 188 °C. Further, in data set [1], the inhibition at 1 µM was not below 50%.
Consider `NC(=O)c1c(Nc2ccc(NC(=O)c3cccc(F)c3)cc2)n[nH]c1NCc1ccc(O)cc1` [Compound D131], for which the melting point was in the range of 216 to 220 °C. Also, the inhibition at 1 µM in data set [1] was not below 50%.
Taken in the same sequence, the figures for `NC(=O)c1c(Nc2ccc(NC(=O)c3ccc(F)cc3)cc2)n[nH]c1NCc1ccc(O)cc1` [Compound D132, 3-((4-(4-fluorobenzamido)phenyl)amino)-5-((4-hydroxybenzyl)amino)-1H-pyrazole-4-carboxamide] were 227 to 231 °C and not below 50%.
`CC(C)(C)OC(=O)Nc1ccc(Nc2n[nH]c(NCc3ccc(O)cc3)c2C(N)=O)cc1` [Compound D135] returned a melting point of 222 to 226 °C. The molecule further showed an inhibition at 1 µM in data set [1] not below 50%.
On to `CC(C)c1ccc(Nc2n[nH]c(NCc3ccc(O)cc3)c2C(N)=O)cc1` [Compound D137, 5-((4-hydroxybenzyl)amino)-3-((4-isopropylphenyl)amino)-1H-pyrazole-4-carboxamide], for which the melting point lay within 200 to 204 °C. Further, in data set [1], the inhibition at 1 µM lay within 20 to 50%.
In the case of `NC(=O)c1c(Nc2ccc(NC(=O)c3sc4cc(F)ccc4c3Cl)cc2)n[nH]c1NCc1ccc(O)cc1` [Compound D141, 3-((4-(3-chloro-6-fluorobenzo[b]thiophene-2-carboxamido)phenyl)amino)-5-((4-hydroxybenzyl)amino)-1H-pyrazole-4-carboxamide], the melting point was in the range of 228 to 232 °C. This molecule also returned an inhibition at 1 µM in data set [1] of 20 to 50%.
In turn, `COc1ccccc1C(=O)Nc1ccc(Nc2n[nH]c(NCc3ccc(O)cc3)c2C(N)=O)cc1` [Compound D143, 5-((4-hydroxybenzyl)amino)-3-((4-(2-methoxybenzamido)phenyl)amino)-1H-pyrazole-4-carboxamide] showed a melting point of 208 to 211 °C. Further, the inhibition at 1 µM in data set [1] was not below 50%.
Taken in the same sequence, the figures for `NC(=O)c1c(Nc2cccnc2)n[nH]c1NCc1ccc(O)cc1` [Compound D150, 5-((4-hydroxybenzyl)amino)-3-(pyridin-3-ylamino)-1H-pyrazole-4-carboxamide] were 229 to 233 °C and not below 50%.
In the case of `COc1ccc(CNc2[nH]nc(Nc3cccnc3)c2C(N)=O)cc1` [Compound D151, 5-((4-methoxybenzyl)amino)-3-(pyridin-3-ylamino)-1H-pyrazole-4-carboxamide], the melting point was 218 to 222 °C. In data set [1], this molecule displayed an inhibition at 1 µM of 20 to 50%.
The molecule `COc1cccc(CNc2[nH]nc(Nc3cccnc3)c2C(N)=O)c1` [Compound D152] yielded a melting point of 226 to 230 °C. Moreover, the inhibition at 1 µM in data set [1] lay within 20 to 50%.
Taken in the same sequence, the figures for `NC(=O)c1c(Nc2cccnc2)n[nH]c1NCc1ccc(Cl)cc1` [Compound D154, 5-((4-chlorobenzyl)amino)-3-(pyridin-3-ylamino)-1H-pyrazole-4-carboxamide] were 228 to 231 °C and 5 to 20%.
